Data set [1] can be described thus: Selectivity index, ratio of CC50 for cytotoxicity against human HepG2.2.15 cells to EC50 for HBV infected in human HepG2.2.15 cells. The settings on record: read-out: Ratio CC50/EC50. Type of data set: toxicity, cell-based.
For the next data set, the system named is HepG2 2.2.15. Description: Cytotoxicity against human HepG2.2.15 cells assessed as reduction in cell viability incubated for 12 hrs followed by replacement of fresh medium containing compound and measured after 2 days by CCK-8 assay. Type of data set: functional.
The subject of the next data set is Hepatitis B virus. In words: Antiviral activity against Hepatitis B virus infected in human HepG2.2.15 cells assessed as inhibition of viral DNA synthesis incubated for 2 days followed by replacement of fresh medium containing compound and measured at day 10 by RT-PCR analysis. Type of data set: functional, organism-based.
Substrate in data set [2]: [H][C@@]12C[C@H](O)CC[C@]1(C)[C@@]1([H])CC[C@@]3(C)[C@@]([H])(CC[C@]3([H])[C@H](C)CCC(=O)OCCCOP(=O)(COCCn3cnc4c(N)ncnc43)OCCCOC(=O)[C@@H](C)N)[C@]1([H])[C@@H](O)C2
In words: (§1) Substrate activity at human NTCP expressed in HEK293 cells harboring pEGFP assessed as Km for transporter-mediated drug uptake measured for 30 mins in presence of sodium chloride by UPLC-MS/MS analysis. Type of data set: cell-based.

Substrate in data set [3]: [H][C@@]12C[C@H](O)CC[C@]1(C)[C@@]1([H])CC[C@@]3(C)[C@@]([H])(CC[C@]3([H])[C@H](C)CCC(=O)OCCCOP(=O)(COCCn3cnc4c(N)ncnc43)OCCCOC(=O)[C@H](N)[C@@H](C)CC)[C@]1([H])[C@@H](O)C2
The data set is described as §1. Format: cell-based.

Substrate in data set [4]: [H][C@@]12C[C@H](O)CC[C@]1(C)[C@@]1([H])CC[C@@]3(C)[C@@]([H])(CC[C@]3([H])[C@H](C)CCC(=O)OCCCOP(=O)(COCCn3cnc4c(N)ncnc43)OCCCOC(=O)[C@H](N)CC(C)C)[C@]1([H])[C@@H](O)C2
The description is as §1. Format: cell-based.

Substrate in data set [5]: [H][C@@]12C[C@H](O)CC[C@]1(C)[C@@]1([H])CC[C@@]3(C)[C@@]([H])(CC[C@]3([H])[C@H](C)CCC(=O)OCCCOP(=O)(COCCn3cnc4c(N)ncnc43)OCCCOC(=O)[C@H](N)C(C)C)[C@]1([H])[C@@H](O)C2
The data set is described as §1. Format: cell-based.

Usually CC50 stands for the concentration that lowers cell viability or growth by half. The term EC50 denotes the midpoint of the concentration-response curve. Take `CC[C@H](C)[C@@H](N)C(=O)OCCCOP(=O)(COCCn1cnc2c(N)ncnc21)OCCCOC(=O)CC[C@@H](C)[C@H]1CC[C@H]2[C@@H]3[C@@H](O)C[C@@H]4C[C@H](O)CC[C@]4(C)[C@H]3CC[C@]12C` (some centres undefined): in data set [1], the selectivity ratio amounted to 528. The CC50 in the data set on HepG2 2.2.15 turned out to be 378 µM. In the data set with Hepatitis B virus, the EC50 is 0.65 µM.

Regarding `CC(C)C[C@@H](N)C(=O)OCCCOP(=O)(COCCn1cnc2c(N)ncnc21)OCCCOC(=O)CC[C@@H](C)[C@H]1CC[C@H]2[C@@H]3CC[C@@H]4C[C@H](O)CC[C@]4(C)[C@H]3C[C@H](O)[C@]12C` (some centres undefined), the selectivity ratio in data set [1] was determined as 89.7. The 50% cytotoxic concentration (CC50) with HepG2 2.2.15 turned out to be 876 µM. For the same molecule, the EC50 in the data set with Hepatitis B virus was found to be 9.77 µM.

`C[C@H](CCC(=O)OCCCOP(=O)(COCCn1cnc2c(N)ncnc21)OCCCSC(=O)[C@@H](N)Cc1ccccc1)[C@H]1CC[C@H]2[C@@H]3[C@@H](O)C[C@@H]4C[C@H](O)CC[C@]4(C)[C@H]3CC[C@]12C` (some centres undefined): the selectivity ratio in data set [1] is 103. For the same molecule, the CC50 with HepG2 2.2.15 was 3040 µM. Moreover, the EC50 with Hepatitis B virus worked out at 29.4 µM.

For `CC(C)[C@H](N)C(=O)SCCCOP(=O)(COCCn1cnc2c(N)ncnc21)OCCCOC(=O)CC[C@@H](C)[C@H]1CC[C@H]2[C@@H]3[C@@H](O)C[C@@H]4C[C@H](O)CC[C@]4(C)[C@H]3CC[C@]12C` (some centres undefined), the selectivity ratio in data set [1] was 19. Further, the CC50 in the data set on HepG2 2.2.15 came to 1840 µM. In addition, in the data set on Hepatitis B virus, the EC50 came out at 97 µM.

Turning to `C[C@H](CCC(=O)OCCCOP(=O)(COCCn1cnc2c(N)ncnc21)OCCCOC(=O)[C@@H](C)N)[C@H]1CC[C@H]2[C@@H]3CC[C@@H]4C[C@H](O)CC[C@]4(C)[C@H]3C[C@H](O)[C@]12C` (some centres undefined), the selectivity ratio in data set [1] was 48.8. Also, the 50% cytotoxic concentration (CC50) in the data set on HepG2 2.2.15 is 1050 µM. Further, the half-maximal effective concentration (EC50) with Hepatitis B virus is 21.5 µM.

For `CC(C)C[C@H](N)C(=O)SCCCOP(=O)(COCCn1cnc2c(N)ncnc21)OCCCOC(=O)CC[C@@H](C)[C@H]1CC[C@H]2[C@@H]3[C@@H](O)C[C@@H]4C[C@H](O)CC[C@]4(C)[C@H]3CC[C@]12C` (some centres undefined), in data set [1], the selectivity ratio came out at 140. Besides, the CC50 in the data set on HepG2 2.2.15 amounted to 2070 µM. Also, the half-maximal effective concentration (EC50) in the data set on Hepatitis B virus was 14.8 µM.

In the case of `C[C@H](CCC(=O)OCCCOP(=O)(COCCn1cnc2c(N)ncnc21)OCCCOC(=O)[C@@H](C)N)[C@H]1CC[C@H]2[C@@H]3[C@@H](O)C[C@@H]4C[C@H](O)CC[C@]4(C)[C@H]3CC[C@]12C` (some centres undefined), the selectivity ratio in data set [1] turned out to be 90. Besides, the CC50 with HepG2 2.2.15 was found to be 489 µM. For the same molecule, the concentration for a half-maximal effect (EC50) in the data set on Hepatitis B virus was 5.44 µM.

On to `CC(C)[C@@H](N)C(=O)OCCCOP(=O)(COCCn1cnc2c(N)ncnc21)OCCCOC(=O)CC[C@@H](C)[C@H]1CC[C@H]2[C@@H]3[C@@H](O)C[C@@H]4C[C@H](O)CC[C@]4(C)[C@H]3CC[C@]12C` (some centres undefined), for which, in data set [1], the selectivity ratio was determined as 122. In addition, the CC50 in the data set with HepG2 2.2.15 amounted to 407 µM. Moreover, the EC50 with Hepatitis B virus was 3.34 µM.

Take `CC[C@H](C)[C@@H](N)C(=O)OCCCOP(=O)(COCCn1cnc2c(N)ncnc21)OCCCOC(=O)CC[C@@H](C)[C@H]1CC[C@H]2[C@@H]3CC[C@@H]4C[C@H](O)CC[C@]4(C)[C@H]3C[C@H](O)[C@]12C` (some centres undefined): the selectivity ratio in data set [1] turned out to be 42.5. For the same molecule, the cytotoxic concentration (CC50) in the data set with HepG2 2.2.15 came out at 1880 µM. For the same molecule, the EC50 with Hepatitis B virus worked out at 44.1 µM.

For `CC(C)[C@H](N)C(=O)SCCCOP(=O)(COCCn1cnc2c(N)ncnc21)OCCCOC(=O)CC[C@@H](C)[C@H]1CC[C@H]2[C@@H]3CC[C@@H]4C[C@H](O)CC[C@]4(C)[C@H]3C[C@H](O)[C@]12C` (some centres undefined), the selectivity ratio in data set [1] came to 62.5. Moreover, the CC50 in the data set on HepG2 2.2.15 came to 1020 µM. Further, the EC50 in the data set with Hepatitis B virus was determined as 16.4 µM.

Take `C[C@H](CCC(=O)OCCCOP(=O)(COCCn1cnc2c(N)ncnc21)OCCCSC(=O)[C@@H](N)Cc1ccccc1)[C@H]1CC[C@H]2[C@@H]3CC[C@@H]4C[C@H](O)CC[C@]4(C)[C@H]3C[C@H](O)[C@]12C` (some centres undefined): in data set [1], the selectivity ratio turned out to be 41.9. For the same molecule, the CC50 with HepG2 2.2.15 turned out to be 789 µM. Also, the half-maximal effective concentration (EC50) in the data set with Hepatitis B virus was determined as 18.8 µM.

As to `CC(C)[C@@H](N)C(=O)OCCCOP(=O)(COCCn1cnc2c(N)ncnc21)OCCCOC(=O)CC[C@@H](C)[C@H]1CC[C@H]2[C@@H]3CC[C@@H]4C[C@H](O)CC[C@]4(C)[C@H]3C[C@H](O)[C@]12C` (some centres undefined), the selectivity ratio in data set [1] was found to be 59.2. Moreover, in the data set on HepG2 2.2.15, the CC50 stood at 666 µM. The EC50 with Hepatitis B virus turned out to be 11.2 µM.

B1: Hepatic sodium/bile acid cotransporter (Homo sapiens) (protein)
chain: MEAHNASAPFNFTLPPNFGKRPTDLALSVILVFMLFFIMLSLGCTMEFSKIKAHLWKPKGLAIALVAQYGIMPLTAFVLGKVFRLKNIEALAILVCGCSPGGNLSNVFSLAMKGDMNLSIVMTTCSTFCALGMMPLLLYIYSRGIYDGDLKDKVPYKGIVISLVLVLIPCTIGIVLKSKRPQYMRYVIKGGMIIILLCSVAVTVLSAINVGKSIMFAMTPLLIATSSLMPFIGFLLGYVLSALFCLNGRCRRTVSMETGCQNVQLCSTILNVAFPPEVIGPLFFFPLLYMIFQLGEGLLLIAIFWCYEKFKTPKDKTKMIYTAATTEETIPGALGNGTYKGEDCSPCTA
By Km is commonly meant the substrate concentration at which the rate is half of its maximum. The term Vmax denotes the rate approached at saturating substrate. Consider B1, for which the Km turned out to be 48.2 µM in data set [2], 102 µM in data set [3], 45.5 µM in data set [4] and 113 µM in data set [5]. Moreover, the maximal velocity (Vmax) in data set [2] was 8.28 µmol/min/mg; in data set [3], 6.86 µmol/min/mg; in data set [4], 9.61 µmol/min/mg; in data set [5], 7.95 µmol/min/mg.

Source of the values: ChEMBL document CHEMBL4346741, “Synthesis, pharmacological evaluation, and mechanistic study of adefovir mixed phosphonate derivatives bearing cholic acid and l-amino acid moieties for the treatment of HBV” (Bioorg Med Chem, 2019).
